Tested on: 935938-334-R-J1-PDC complex spheroid viability
Test: Anticancer human tumor 935938-334-R-J1-PDC patient-derived small intestine adenocarcinoma cell line growth inhibition [POLQ]
Details: for IC50: curve of first compound; for viability, T/C: stronger effect = lower value; active = viability on the fitted dose curve at most 10% of control; inactive = the rest
Outline: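 Complex spheroid viability model combining PDC tumour cells with endothelial (HUVEC) and MSC stromal cells. Novobiocin, ART-558 or RP6685 were tested singly and in combination with standard and investigational anticancer drugs. Each was titrated in half-log steps from near clinical Cmax, or from 10 microM where Cmax was unknown.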

[1] = second compound 0.0316 µM, first compound 0.0316 µM
[2] = second compound 0.0316 µM, first compound 0.1 µM
[3] = second compound 0.0316 µM, first compound 0.316 µM
[4] = second compound 0.0316 µM, first compound 1 µM
[5] = second compound 0.0316 µM, first compound 3.16 µM
[6] = second compound 0.0316 µM, first compound 10 µM
[7] = second compound 0.1 µM, first compound 0.0316 µM
[8] = second compound 0.1 µM, first compound 0.1 µM
[9] = second compound 0.1 µM, first compound 0.316 µM
[10] = second compound 0.1 µM, first compound 1 µM
[11] = second compound 0.1 µM, first compound 3.16 µM
[12] = second compound 0.1 µM, first compound 10 µM
[13] = second compound 0.316 µM, first compound 0.0316 µM
[14] = second compound 0.316 µM, first compound 0.1 µM
[15] = second compound 0.316 µM, first compound 0.316 µM
[16] = second compound 0.316 µM, first compound 1 µM
[17] = second compound 0.316 µM, first compound 3.16 µM
[18] = second compound 0.316 µM, first compound 10 µM
[19] = second compound 1 µM, first compound 0.0316 µM
[20] = second compound 1 µM, first compound 0.1 µM
[21] = second compound 1 µM, first compound 0.316 µM
[22] = second compound 1 µM, first compound 1 µM
[23] = second compound 1 µM, first compound 3.16 µM
[24] = second compound 1 µM, first compound 10 µM
[25] = second compound 3.16 µM, first compound 0.0316 µM
[26] = second compound 3.16 µM, first compound 0.1 µM
[27] = second compound 3.16 µM, first compound 0.316 µM
[28] = second compound 3.16 µM, first compound 1 µM
[29] = second compound 3.16 µM, first compound 3.16 µM
[30] = second compound 3.16 µM, first compound 10 µM
[31] = second compound 10 µM, first compound 0.0316 µM
[32] = second compound 10 µM, first compound 0.1 µM
[33] = second compound 10 µM, first compound 0.316 µM
[34] = second compound 10 µM, first compound 1 µM
[35] = second compound 10 µM, first compound 3.16 µM
[36] = second compound 10 µM, first compound 10 µM
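Note: spheroids exposed to drugs for seven days before viability read.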
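Throughout, for viability, T/C: 100% = DMSO vehicle control wells.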

COc1ccc([C@@H](O)c2cc(-c3ncnc4cc(N5CCOCC5)ccc34)c(F)cc2Cl)nn1 + COC1C(OC(N)=O)C(O)C(Oc2ccc3c(O)c(NC(=O)c4ccc(O)c(CC=C(C)C)c4)c(=O)oc3c2C)OC1(C)C
5.47 µM: IC50 (second compound 0.0316 µM)
inactive: viability, T/C [1] 96.2% | viability, T/C [2] 131% | viability, T/C [3] 106% | viability, T/C [4] 76.4% | viability, T/C [5] 67.5% | viability, T/C [6] 36.3% | viability, T/C [7] 111% | viability, T/C [8] 106% | viability, T/C [9] 75% | viability, T/C [10] 89.2% | viability, T/C [11] 64.4% | viability, T/C [12] 26.6% | viability, T/C [13] 102% | viability, T/C [14] 103% | viability, T/C [15] 98.2% | viability, T/C [16] 59.3% | viability, T/C [17] 66.3% | viability, T/C [18] 35.1% | viability, T/C [19] 113% | viability, T/C [20] 125% | viability, T/C [21] 111% | viability, T/C [22] 85.2% | viability, T/C [23] 51.6% | viability, T/C [24] 33.9% | viability, T/C [25] 115% | viability, T/C [26] 97.8% | viability, T/C [27] 108% | viability, T/C [28] 81.4% | viability, T/C [29] 73% | viability, T/C [30] 38.1% | viability, T/C [31] 95.8% | viability, T/C [32] 72.4% | viability, T/C [33] 96.4% | viability, T/C [34] 70.4% | viability, T/C [35] 80% | viability, T/C [36] 34.8%
4.59 µM: IC50 (second compound 0.316 µM)
4.65 µM: IC50 (second compound 0.1 µM)
6.65 µM: IC50 (second compound 10 µM)
6.59 µM: IC50 (second compound 3.16 µM)
3.26 µM: IC50 (second compound 1 µM)

C#Cc1c(F)ccc2cc(O)cc(-c3ncc4c(N5CC6CCC(C5)N6)nc(OCC56CCCN5CC(F)C6)nc4c3F)c12 (stereo not drawn) + Nc1ccc(C#CCN(C(=O)Cc2ncc(C(F)(F)F)cc2C(F)(F)F)c2ccc(F)cc2)nn1
2.85 µM: IC50 (second compound 1 µM)
5.75 µM: IC50 (second compound 0.0316 µM)
inactive: viability, T/C [1] 97.5% | viability, T/C [2] 104% | viability, T/C [3] 84.6% | viability, T/C [4] 74.1% | viability, T/C [5] 65% | viability, T/C [6] 38.4% | viability, T/C [7] 97.9% | viability, T/C [8] 84.8% | viability, T/C [9] 90.4% | viability, T/C [10] 97.4% | viability, T/C [11] 52.1% | viability, T/C [12] 53.6% | viability, T/C [13] 83.7% | viability, T/C [14] 114% | viability, T/C [15] 92% | viability, T/C [16] 68.2% | viability, T/C [17] 52% | viability, T/C [18] 42.1% | viability, T/C [19] 81.4% | viability, T/C [20] 111% | viability, T/C [21] 92.1% | viability, T/C [22] 73.4% | viability, T/C [23] 48.6% | viability, T/C [24] 41.8% | viability, T/C [25] 105% | viability, T/C [26] 99.6% | viability, T/C [27] 66.9% | viability, T/C [28] 66.4% | viability, T/C [29] 61.1% | viability, T/C [30] 67.2% | viability, T/C [31] 108% | viability, T/C [32] 96.7% | viability, T/C [33] 76.2% | viability, T/C [34] 63.6% | viability, T/C [35] 43% | viability, T/C [36] 48.9%
2.94 µM: IC50 (second compound 10 µM)
2.92 µM: IC50 (second compound 0.316 µM)
> 10 µM: IC50 (second compound 0.1 µM) | IC50 (second compound 3.16 µM)

O=C(c1cc(Cc2n[nH]c(=O)c3ccccc23)ccc1F)N1CCN(C(=O)C2CC2)CC1 + Nc1ccc(C#CCN(C(=O)Cc2ncc(C(F)(F)F)cc2C(F)(F)F)c2ccc(F)cc2)nn1
inactive: viability, T/C [1] 87.6% | viability, T/C [2] 89.3% | viability, T/C [3] 108% | viability, T/C [4] 89.5% | viability, T/C [5] 75.2% | viability, T/C [6] 76.3% | viability, T/C [7] 93.7% | viability, T/C [8] 81% | viability, T/C [9] 105% | viability, T/C [10] 73.1% | viability, T/C [11] 81% | viability, T/C [12] 60% | viability, T/C [13] 84.4% | viability, T/C [14] 85% | viability, T/C [15] 116% | viability, T/C [16] 69.3% | viability, T/C [17] 74.3% | viability, T/C [18] 53.3% | viability, T/C [19] 99.3% | viability, T/C [20] 99.8% | viability, T/C [21] 107% | viability, T/C [22] 98.6% | viability, T/C [23] 111% | viability, T/C [24] 78.7% | viability, T/C [25] 92% | viability, T/C [26] 93.5% | viability, T/C [27] 95% | viability, T/C [28] 94.8% | viability, T/C [29] 94.9% | viability, T/C [30] 69.2% | viability, T/C [31] 84.4% | viability, T/C [32] 94.9% | viability, T/C [33] 102% | viability, T/C [34] 98.2% | viability, T/C [35] 81% | viability, T/C [36] 85.9%
> 10 µM: IC50 (second compound 0.0316 µM) | IC50 (second compound 0.1 µM) | IC50 (second compound 0.316 µM) | IC50 (second compound 1 µM) | IC50 (second compound 3.16 µM) | IC50 (second compound 10 µM)

CCc1cc2c(N3CCc4c(cc(Cn5ccnc5)cc4-c4cn(C)nc4C(F)(F)F)C3=O)cc(C)nc2c(OC)n1 + COC1C(OC(N)=O)C(O)C(Oc2ccc3c(O)c(NC(=O)c4ccc(O)c(CC=C(C)C)c4)c(=O)oc3c2C)OC1(C)C
inactive: viability, T/C [1] 83.6% | viability, T/C [2] 81.1% | viability, T/C [3] 77.7% | viability, T/C [4] 72.9% | viability, T/C [5] 64.6% | viability, T/C [6] 64.8% | viability, T/C [7] 80.8% | viability, T/C [8] 83.1% | viability, T/C [9] 74.1% | viability, T/C [10] 62.8% | viability, T/C [11] 70.4% | viability, T/C [12] 64% | viability, T/C [13] 74.6% | viability, T/C [14] 72.5% | viability, T/C [15] 75.5% | viability, T/C [16] 70.5% | viability, T/C [17] 75.4% | viability, T/C [18] 60% | viability, T/C [19] 64.7% | viability, T/C [20] 72% | viability, T/C [21] 90.6% | viability, T/C [22] 88.9% | viability, T/C [23] 73.9% | viability, T/C [24] 71.3% | viability, T/C [25] 64.4% | viability, T/C [26] 73.6% | viability, T/C [27] 73% | viability, T/C [28] 61.5% | viability, T/C [29] 74.7% | viability, T/C [30] 56.4% | viability, T/C [31] 85.7% | viability, T/C [32] 68.8% | viability, T/C [33] 71.8% | viability, T/C [34] 71.5% | viability, T/C [35] 78.5% | viability, T/C [36] 66.7%
> 10 µM: IC50 (second compound 0.0316 µM) | IC50 (second compound 0.1 µM) | IC50 (second compound 0.316 µM) | IC50 (second compound 1 µM) | IC50 (second compound 3.16 µM) | IC50 (second compound 10 µM)
